Results from patent US20140011839A1, “COMPOSITIONS AND METHODS FOR TREATING AND INHIBITING VIRAL INFECTIONS” (priority 2012, published 2014).

Columns and labels:
HPV-11 = experiment: HPV transient replication assay (E1/E2 expression vectors plus ori plasmid, qPCR of replicated DNA); assay type: cell-based, human papillomavirus; conditions: for SI90 (CC50/EC90): selectivity index
From the text: (§1) Specifically, in these tests, vectors for expression of an HPV genotype-matched set of viral El and E2 proteins (derived from virus strain HPV-11) along with an HPV ori-containing plasmid were cotransfected into HEK293 cells. […] Low molecular weight DNA was harvested 2 days post-transfection and digested with Dpnl and exonuclease Ill to remove unreplicated transfected plasmid DNA. The replicated DNA was then subjected to real time qPCR (quantitative polymerase chain reaction) analyses in triplicate. Two controls were performed. One was to omit the El expression vector to provide a background amount of undigested and unreplicated DNA. The other, positive control was treatment with the known inhibitor cidofovir, as mentioned above. A toxicity assay based upon cell viability at the time of harvest on day 2 was performed alongside each transient replication assay in 293 cells. The test compounds were added 4 hours post transfection for a total exposure of 44 hours. More than 1×10^5 cells were scored in a BioRad Automatic Cell Counter, with a determination of the total numbers, the numbers of trypan blue stained (dead) cells, and the % of dead cells.

[1] = toxicity assay based upon cell viability (trypan blue) alongside the replication assay; conditions: human
From the text: as §1

Row | SMILES | SI90 (CC50/EC90) (HPV-11) | CC50 at 44 h [1] | EC90 (HPV-11; Human papillomavirus, HPV-11 E1/E2 + ori plasmid in HEK293 cells, compounds tested at 1, 10, 100 μM, 44 hours exposure, read-out: EC90 (concentration that reduces viral replication by 90%))
1 | CCN(CC)Cc1cc(Nc2ccnc3cc(Cl)ccc23)ccc1O [Amodiaquine, amodiaquine] | >2 | > 100 µM | 
2 | Nc1ccn(C[C@@H](CO)OCP(=O)(O)O)c(=O)n1 [Cidofovir, cidofovir] | 1 | > 200 µM | > 200 µM
